Data taken from patent US8802597B2, “Herbicidal pyrimidines” (E I du Pont de Nemours and Company, priority 2003, dated 2014).

Columns and labels:
Assay in all cases: Test A pre/postemergence
Assay type in all cases: in vivo
[1] = tested on: barnyardgrass (Echinochloa crus-galli)
Description: (§1) Seeds of barnyardgrass (Echinochloa crus-galli), crabgrass (Digitaria sanguinalis), giant foxtail (Setaria faberi), morningglory (Ipomoea spp.), redroot pigweed (Amaranthus retroflexus) and velvetleaf (Abutilon theophrasti) were planted into a blend of loam soil and sand and treated preemergence with a directed soil spray using test chemicals formulated in a non-phytotoxic solvent mixture which included a surfactant. At the same time these species were also treated with postemergence applications of test chemicals formulated in the same manner.
(§2) Plants ranged in height from 2 to 10 cm and were in the 1- to 2-leaf stage for the postemergence treatment. Treated plants and untreated controls were maintained in a greenhouse for approximately ten days, after which time all treated plants were compared to untreated controls and visually evaluated for injury. Plant response ratings, summarized in Table A, are based on a 0 to 100 scale where 0 is no effect and 100 is complete control. A dash (-) response means no test results.

[2] = tested on: morningglory (Ipomoea spp.)
Description: as §1, §2

[3] = tested on: crabgrass (Digitaria sanguinalis)
Description: as §1, §2

[4] = tested on: velvetleaf (Abutilon theophrasti)
Description: as §1, §2

[5] = tested on: giant foxtail (Setaria faberi)
Description: as §1, §2

[6] = tested on: redroot pigweed (Amaranthus retroflexus)
Description: as §1, §2

[7] = Postemergence, 125 g ai/ha, 0 to 100 scale (0 no effect, 100 complete control)
[8] = Postemergence, 500 g ai/ha, 0 to 100 scale (0 no effect, 100 complete control)
[9] = Preemergence, 125 g ai/ha, 0 to 100 scale where 0 is no effect and 100 is complete control, approximately ten days
[10] = Preemergence, 500 g ai/ha, 0 to 100 scale where 0 is no effect and 100 is complete control, approximately ten days

SMILES	Plant response rating, Barnyardgrass [1, 7]	Plant response rating, Barnyardgrass [1, 8]	Plant response rating, Barnyardgrass [1, 9]	Plant response rating, Barnyardgrass [1, 10]	Plant response rating, Morningglory [2, 7]	Plant response rating, Morningglory [2, 8]	Plant response rating, Morningglory [2, 9]	Plant response rating, Morningglory [2, 10]	Plant response rating, Crabgrass [3, 7]	Plant response rating, Crabgrass [3, 8]	Plant response rating, Crabgrass [3, 9]	Plant response rating, Crabgrass [3, 10]	Plant response rating, Velvetleaf [4, 7]	Plant response rating, Velvetleaf [4, 8]	Plant response rating, Velvetleaf [4, 9]	Plant response rating, Velvetleaf [4, 10]	Plant response rating, Foxtail, Giant [5, 7]	Plant response rating, Foxtail, Giant [5, 8]	Plant response rating, Foxtail, Giant [5, 9]	Plant response rating, Foxtail, Giant [5, 10]	also measured
CCCOC(=O)c1nc(-c2ccc(Cl)cc2)nc(N)c1Cl [Compound 105]	10	25	0	0	50	70	0	0	20	45	0	0	85	95	0	0	10	10	0	0	Plant response rating, Pigweed [6, 7]: 65; Plant response rating, Pigweed [6, 8]: 90; Plant response rating, Pigweed [6, 9]: 0; Plant response rating, Pigweed [6, 10]: 0
CCCCOCCOC(=O)c1nc(C2CC2)nc(N)c1Cl [Compound 139]	80	90	75	90	80	90	90	100	60	70	75	90	85	90	90	90	80	80	80	90	Plant response rating, Pigweed [6, 7]: 90; Plant response rating, Pigweed [6, 8]: 100; Plant response rating, Pigweed [6, 9]: 90; Plant response rating, Pigweed [6, 10]: 100
Nc1nc(C2CC2)nc(OCC(=O)[O-])c1Cl.[Na+] [Compound 116]	0	0	10	20	40	60	30	50	0	0	0	10	15	40	0	15	0	0	0	0	Plant response rating, Pigweed [6, 7]: 20; Plant response rating, Pigweed [6, 8]: 35; Plant response rating, Pigweed [6, 9]: 30; Plant response rating, Pigweed [6, 10]: 50
Cc1ccc(-c2nc(N)c(Br)c(C(=O)O)n2)cc1 [Compound 89]	60	85	0	50	0	30	0	0	0	10	0	60	70	95	20	75	10	45	0	10	Plant response rating, Pigweed [6, 7]: 50; Plant response rating, Pigweed [6, 8]: 100; Plant response rating, Pigweed [6, 9]: 80; Plant response rating, Pigweed [6, 10]: 100
COC(OC)c1nc(-c2ccc(I)cc2)nc(N)c1Cl [Compound 134]	0	0	0	0	0	0	0	0	0	0	0	0	50	55	0	0	0	0	0	0	Plant response rating, Pigweed [6, 7]: 15; Plant response rating, Pigweed [6, 8]: 30; Plant response rating, Pigweed [6, 9]: 0; Plant response rating, Pigweed [6, 10]: 0
COC(=O)COC(=O)c1nc(C2CC2)nc(N)c1Cl [Compound 148]	68	90	65	85	90	100	90	100	10	85	45	90	75	95	80	100	45	80	40	80	Plant response rating, Pigweed [6, 7]: 75; Plant response rating, Pigweed [6, 8]: 95; Plant response rating, Pigweed [6, 9]: 80; Plant response rating, Pigweed [6, 10]: 90
CC(C)OC(=O)c1nc(-c2ccc(Cl)cc2)nc(N)c1Cl [Compound 102]	0	0	0	0	0	15	0	0	10	10	0	0	45	70	10	20	0	0	0	0	Plant response rating, Pigweed [6, 7]: 50; Plant response rating, Pigweed [6, 8]: 65; Plant response rating, Pigweed [6, 9]: 10; Plant response rating, Pigweed [6, 10]: 15
